In patent publication US5330992A, “1-cyclopropyl-4-pyridyl-quinolinones” (priority 1992, dated 1994):
Like-named read-outs stand apart in the source and are kept apart here.

Legend:
human topoisomerase II = target: T1, human topoisomerase II (Homo sapiens, UniProt P11388); test: Mammalian Topoisomerase II Inhibition Assay (DNA-topo II complex formation); type: biochemical; settings: read-out: TopoII Inh. EC50
T1 construct: Topo II was purified from late log phase suspension cultures of HeLa WIS; endogenous in cells; host or cells: HeLa WIS suspension cultures, late log phase (enzyme purified from the cells)
Procedure: Mammalian Topoisomerase II Inhibition Assay Procedure
The assay quantitates the amount of topo II covalently complexed by DNA at equilibrium during a topo II reaction. This assay determines the potential of a compound to stabilize this complex, which potential is closely related to the cytotoxicity of the compound.
Assays (in duplicate) were assembled at 4° C.
4 ng 3' end labeled (^32 P) pBR322 DNA (10^7 DMP/μg)
The assay mix including the test compound was incubated for 20 minutes at 37° C. The reaction was terminated at 37° C. by the addition of 3 μl 10% SDS followed by the addition of 266 μl 10 mM Tris-Cl pH 7.5, 20 μg/ml BSA, 20 μg/ml calf thymus DNA, 1% SDS.
A SDS/protein precipitate was formed by the addition of 28 μl 2.5M KCl followed by chilling on ice for a minimum of 10 minutes. The precipitate was collected and washed with a Brandell cell harvester on a GFB glass fiber filter membrane as follows. The contents of the assay tube were drawn up into the harvester. The tube was then rinsed 7X with 10 mM Tris-Cl pH 7.5, 1 mM EDTA and 100 mM KCl. […] After drying, CPM was determined by liquid scintillation counting with 5 ml Biofluor (NEN Research Products) or Readisafe (Beckman Instruments Inc.) cocktail.
This solution then was diluted 1/5 into water and serially thereafter in either 0.02N sodium hydroxide or 0.04N hydrogen chloride, respectively. The stock solution and serial dilution of the test compound was stored at -20° C. prior to testing.
Screening of test compound--As an initial screen, the test compound was tested at a final concentration of 2, 20 and 200 μg/ml. The compound was then retested at a range of concentrations (usually 2-3X steps) bridging their approximate EC50 's, as estimated by the prescreen.
Controls--A solvent control which indicates the base level of topo II-DNA complex formed in the absence of the test compound was included in each test. A control, in which topo II was omitted, was included for each test compound at the highest drug concentration tested.
Reference Agent--A dose response curve with mAMSA at 0.01, 0.08, 0.16, 0.32, 1.0 and 10 μg/ml was included in each test.
The maximal DNA-topo II complex formed is taken as that equal to that formed at the nearly saturating dose of mAMSA (10 μg/ml).

[1] = tested on: P388 murine leukemia cells; test: Malignant cell cytotoxicity, one-hour exposure (clonogenic survival in soft agar); type: cell-based; settings: Mus musculus, 1 hr exposure, read-out: IC50 P388 1 hr. exp.
Procedure: (§1) Examples of compound I having Topo II activity were tested for malignant cell cytotoxicity. In vitro cytotoxicity was assayed by determining cell survival following exposure of P388 murine leukemia cells to a range of test compound concentrations. Cytotoxicity was quantitated following either a one-hour exposure or continuous exposure of P388 cells to test compound.
(§2) Cytotoxicity following a one-hour exposure of cells to drug was assayed by quantitating clonogenic cell survival according to a published procedure [Freshney, R. L. (1987) Culture of Animal Cells. A Manual of Basic Technique. Wiley-Liss Inc., New York, N.Y., pp. 140-144]. Briefly, following drug exposure cells were plated in soft agar and incubated (37°, 5% CO2) for 7-10 days during which time viable cells form visible colonies. Cytotoxicity following continuous exposure of cells to test compound was assayed by quantitating total P388 cells on a Coultier Counter following a 48-hour co-incubation of test compound with cells. P388 cells were maintained in log phase throughout the duration of cytotoxicity assays.
(§3) The percentage of cells surviving relative to an untreated control was graphed as a function of increasing drug concentration.

[2] = tested on: P388 murine leukemia cells; test: Malignant cell cytotoxicity, continuous 48-hour exposure (Coulter Counter); type: cell-based; settings: Mus musculus, read-out: IC50 P388 cont. exp.
Procedure: as §1, §2, §3

[3] = EC50 = concentration with activity equal to EC50 of reference mAMSA

T1 sequence (P11388 whole entry): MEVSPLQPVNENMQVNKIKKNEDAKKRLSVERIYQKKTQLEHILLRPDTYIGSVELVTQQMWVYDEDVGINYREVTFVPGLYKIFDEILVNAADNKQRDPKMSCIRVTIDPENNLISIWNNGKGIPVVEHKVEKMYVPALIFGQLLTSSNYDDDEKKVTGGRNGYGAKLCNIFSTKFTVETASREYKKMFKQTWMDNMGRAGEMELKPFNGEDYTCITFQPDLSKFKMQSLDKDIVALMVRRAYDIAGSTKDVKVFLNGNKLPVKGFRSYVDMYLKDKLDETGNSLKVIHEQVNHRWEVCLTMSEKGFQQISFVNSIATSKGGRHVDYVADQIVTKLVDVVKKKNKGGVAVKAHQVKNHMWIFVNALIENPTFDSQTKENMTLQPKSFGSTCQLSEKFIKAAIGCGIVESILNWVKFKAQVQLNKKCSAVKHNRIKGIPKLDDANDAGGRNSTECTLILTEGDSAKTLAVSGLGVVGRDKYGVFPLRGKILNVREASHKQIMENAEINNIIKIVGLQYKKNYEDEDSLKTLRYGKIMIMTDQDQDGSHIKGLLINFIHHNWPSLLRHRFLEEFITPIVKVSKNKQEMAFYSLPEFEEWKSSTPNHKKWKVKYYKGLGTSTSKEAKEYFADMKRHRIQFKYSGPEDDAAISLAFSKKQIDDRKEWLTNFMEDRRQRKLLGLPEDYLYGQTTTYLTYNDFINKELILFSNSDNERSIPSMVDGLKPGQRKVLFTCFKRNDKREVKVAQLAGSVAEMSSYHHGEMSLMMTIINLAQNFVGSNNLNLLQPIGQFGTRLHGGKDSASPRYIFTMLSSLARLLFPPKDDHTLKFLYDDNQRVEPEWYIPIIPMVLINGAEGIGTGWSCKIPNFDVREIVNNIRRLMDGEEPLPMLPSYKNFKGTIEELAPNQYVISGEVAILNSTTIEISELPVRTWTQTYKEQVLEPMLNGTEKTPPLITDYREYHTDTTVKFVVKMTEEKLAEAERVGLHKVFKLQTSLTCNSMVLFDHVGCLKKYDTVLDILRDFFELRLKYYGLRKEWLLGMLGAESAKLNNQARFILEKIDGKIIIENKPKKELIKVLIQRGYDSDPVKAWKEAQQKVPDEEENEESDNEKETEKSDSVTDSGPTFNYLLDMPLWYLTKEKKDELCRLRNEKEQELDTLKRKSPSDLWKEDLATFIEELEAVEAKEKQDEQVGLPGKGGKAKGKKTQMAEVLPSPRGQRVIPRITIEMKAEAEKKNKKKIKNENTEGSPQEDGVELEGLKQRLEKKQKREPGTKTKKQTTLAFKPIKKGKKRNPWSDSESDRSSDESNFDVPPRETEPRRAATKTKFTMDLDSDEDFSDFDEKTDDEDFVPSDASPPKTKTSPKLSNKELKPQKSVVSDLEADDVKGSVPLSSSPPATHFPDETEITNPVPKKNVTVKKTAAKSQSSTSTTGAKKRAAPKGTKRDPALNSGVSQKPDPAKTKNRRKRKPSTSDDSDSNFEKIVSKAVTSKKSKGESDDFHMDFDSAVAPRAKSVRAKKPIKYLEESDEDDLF

SMILES	EC50 (human topoisomerase II; [3]) [µM]	EC50 (human topoisomerase II; * Bell-shaped curve, E = extrapolated) [µM]	EC50 (human topoisomerase II; * Bell-shaped curve) [µM]	IC50 [1] [µM]	IC50 [2] [µM]
COc1cccc(OC)c1Cc1cn(C2CC2)c2c(F)c(-c3cc(C)nc(C)c3)c(F)cc2c1=O [Example 1, 1-Cyclopropyl-6,8-difluoro-7-[2,6-dimethyl-4-pyridinyl]-3-[2,6-dimethoxyphenylmethyl]-1,4-dihydro-quinolin-4-one]	37			80	20
Cc1cc(-c2c(F)cc3c(=O)c(Cc4ccc(F)cc4O)cn(C4CC4)c3c2F)cc(C)n1 [Example 2, 1-cyclopropyl-6,8-difluoro-7-[2,6-dimethyl-4-pyridinyl]-3-[4-fluoro-2-hydroxyphenylmethyl) -4(H)-quinolone]	1			1.6	
Cc1cc(-c2c(F)cc3c(=O)c(Cc4ccccn4)cn(C4CC4)c3c2F)cc(C)n1 [Example 4]	12				4
COc1cc(Cc2cn(C3CC3)c3c(F)c(-c4cc(C)nc(C)c4)c(F)cc3c2=O)cc(OC)c1OC [Example 5]	> 190				18
COc1ccccc1Cc1cn(C2CC2)c2c(F)c(-c3cc(C)nc(C)c3)c(F)cc2c1=O [Example 8]	11			37	6.9
COc1cccc(Cc2cn(C3CC3)c3c(F)c(-c4cc(C)nc(C)c4)c(F)cc3c2=O)c1 [Example 9]	14			20	6.1
COc1cccc(Cc2cn(C3CC3)c3c(F)c(-c4cc(C)nc(C)c4)c(F)cc3c2=O)c1OC [Example 11]	> 210				8.9
Cc1cc(-c2c(F)cc3c(=O)c(Cc4ccncc4)cn(C4CC4)c3c2F)cc(C)n1 [Example 13]	9.1				2.3
Cc1cc(-c2c(F)cc3c(=O)c(Cc4ccccc4C(=O)O)cn(C4CC4)c3c2F)cc(C)n1 [Example 15]	200				
Cc1cc(-c2c(F)cc3c(=O)c(Cc4ccc[nH]4)cn(C4CC4)c3c2F)cc(C)n1 [Example 16]	5.1			0.93	
CC(=O)Nc1ccc(Cc2cn(C3CC3)c3c(F)c(-c4cc(C)nc(C)c4)c(F)cc3c2=O)cc1 [Example 19]	47				
Cc1cc(-c2c(F)cc3c(=O)c(Cc4ccccc4NC(=O)C(F)(F)F)cn(C4CC4)c3c2F)cc(C)n1 [Example 22]	4.7				
Cc1cc(-c2c(F)cc3c(=O)c(Cc4ccccc4NS(C)(=O)=O)cn(C4CC4)c3c2F)cc(C)n1 [Example 25]	3.3				
Cc1cc(-c2c(F)cc3c(=O)c(Cc4cc(O)c(O)c(O)c4)cn(C4CC4)c3c2F)cc(C)n1 [Example 29]	0.6			3	8
Cc1cc(-c2c(F)cc3c(=O)c(Cc4ccc(O)c(O)c4)cn(C4CC4)c3c2F)cc(C)n1 [Example 32]	0.16			0.6	1.4
Cc1cc(-c2c(F)cc3c(=O)c(Cc4ccc(O)c(C)c4O)cn(C4CC4)c3c2F)cc(C)n1 [Example 36]	0.2				
Cc1cc(-c2c(F)cc3c(=O)c(Cc4cc(O)ccc4O)cn(C4CC4)c3c2F)cc(C)n1 [Example 38]	0.16			0.36	
Cc1cc(-c2c(F)cc3c(=O)c(Cc4ccccc4N)cn(C4CC4)c3c2F)cc(C)n1 [Example 41a]	2.1				

Continued, in another order:

EC50 (human topoisomerase II; [3]) [µM]	EC50 (human topoisomerase II; * Bell-shaped curve, E = extrapolated) [µM]	EC50 (human topoisomerase II; * Bell-shaped curve) [µM]	SMILES	IC50 [1] [µM]	IC50 [2] [µM]
7.7			Cc1cc(-c2c(F)cc3c(=O)c(Cc4ccc(Cl)cc4)cn(C4CC4)c3c2F)cc(C)n1 [Example 6]	20	6.1
	14		COc1ccc(Cc2cn(C3CC3)c3c(F)c(-c4cc(C)nc(C)c4)c(F)cc3c2=O)cc1 [Example 7]	21	14
		34	Cc1cc(-c2c(F)cc3c(=O)c(Cc4ccc5c(c4)OCO5)cn(C4CC4)c3c2F)cc(C)n1 [Example 10]		8.5
> 210			COc1ccc(Cc2cn(C3CC3)c3c(F)c(-c4cc(C)nc(C)c4)c(F)cc3c2=O)c(OC)c1 [Example 12]	> 200	7.4
> 190			COc1cc(OC)c(Cc2cn(C3CC3)c3c(F)c(-c4cc(C)nc(C)c4)c(F)cc3c2=O)c(OC)c1 [Example 14]		
> 210			COc1ccc(Cc2cn(C3CC3)c3c(F)c(-c4cc(C)nc(C)c4)c(F)cc3c2=O)c(OC)c1C [Example 17]		
4.6			Cc1cc(-c2c(F)cc3c(=O)c(Cc4c(CO)cnc(C)c4O)cn(C4CC4)c3c2F)cc(C)n1 [Example 21]		
20			COc1ccc(OC)c(Cc2cn(C3CC3)c3c(F)c(-c4cc(C)nc(C)c4)c(F)cc3c2=O)c1 [Example 23]		
1.6			Cc1cc(-c2c(F)cc3c(=O)c(Cc4c[nH]cn4)cn(C4CC4)c3c2F)cc(C)n1 [Example 24]	0.39	
1.2			Cc1cc(-c2c(F)cc3c(=O)c(Cc4ccc(O)cc4)cn(C4CC4)c3c2F)cc(C)n1 [Example 27, 1-Cyclopropyl-6,8-difluoro-7-[2,6-dimethyl-4-pyridinyl]-3-[4-hydroxyphenylmethyl]-1,4-dihydro-quinoline-4-one]	1.5	0.45
7.6			COc1cc(Cc2cn(C3CC3)c3c(F)c(-c4cc(C)nc(C)c4)c(F)cc3c2=O)cc(OC)c1O [Example 28]	8.2	4.6
1.1			Cc1cc(-c2c(F)cc3c(=O)c(Cc4cccc(O)c4)cn(C4CC4)c3c2F)cc(C)n1 [Example 31]	2.2	1.5
0.36			Cc1cc(-c2c(F)cc3c(=O)c(Cc4cccc(O)c4O)cn(C4CC4)c3c2F)cc(C)n1 [Example 34]	0.88	0.32
0.098			Cc1cc(-c2c(F)cc3c(=O)c(Cc4c(O)cc(O)cc4O)cn(C4CC4)c3c2F)cc(C)n1 [Example 35]	0.47	
0.15			Cc1cc(-c2c(F)cc3c(=O)c(Cc4cccc(F)c4O)cn(C4CC4)c3c2F)cc(C)n1 [Example 37]	125	
7.2			Cc1cc(-c2c(F)cc3c(=O)c(Cc4ccc(N)cc4)cn(C4CC4)c3c2F)cc(C)n1 [Example 39]		
5.1			CC(=O)Nc1ccccc1Cc1cn(C2CC2)c2c(F)c(-c3cc(C)nc(C)c3)c(F)cc2c1=O [Example 41b]		
